# From PubChem BioAssay (NCI)
# Values joined by “and” are separate entries in the source; they are usually repeats but may differ in a detail not shown here. Equal entries are not always repeated.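 Step 1: Grow cells in 96-well plates. Step 2: Expose to compound for 48 hours at 5 concentrations. Step 3: Interpolate endpoints linearly; if unreached, use highest concentration. GI50 = concentration required for 50% inhibition of growth. TGI denotes the concentration required for complete inhibition of growth.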
# Tests used:
# Assay in all cases: growth of human tumour cells (NCI), 48 h
# DU-145 prostate = test system: DU-145 prostate
# OVCAR-8 ovarian = test system: OVCAR-8 ovarian
# OVCAR-5 ovarian = test system: OVCAR-5 ovarian
# TK-10 renal = test system: TK-10 renal
# SK-MEL-2 melanoma = test system: SK-MEL-2 melanoma
# UACC-257 melanoma = test system: UACC-257 melanoma
# RXF 393 renal = test system: RXF 393 renal
# HCT-15 colon = test system: HCT-15 colon
# SN12C renal = test system: SN12C renal
# SK-OV-3 ovarian = test system: SK-OV-3 ovarian
Structure (SMILES),GI50 (DU-145 prostate),TGI (DU-145 prostate),GI50 (OVCAR-8 ovarian),TGI (OVCAR-8 ovarian),GI50 (OVCAR-5 ovarian),TGI (OVCAR-5 ovarian),GI50 (TK-10 renal),TGI (TK-10 renal),GI50 (SK-MEL-2 melanoma),TGI (SK-MEL-2 melanoma),GI50 (UACC-257 melanoma),TGI (UACC-257 melanoma),GI50 (RXF 393 renal),TGI (RXF 393 renal),GI50 (HCT-15 colon),TGI (HCT-15 colon),GI50 (SN12C renal),TGI (SN12C renal),GI50 (SK-OV-3 ovarian),TGI (SK-OV-3 ovarian)
CNC(=O)c1cccc(C#Cc2cncnc2Nc2ccc(OCc3cccc(F)c3)c(Cl)c2)c1,3.57 µM,8.96 µM,7.3 µM,> 25 µM,7.34 µM,> 25 µM,1.46 µM,9.03 µM,8.82 µM,> 25 µM,9.72 µM,> 25 µM,2.91 µM,11.7 µM,6.52 µM,> 25 µM,12 µM,> 25 µM,3.19 µM,12.7 µM
C=CC(=O)Nc1cccc(Oc2nc(Nc3ccc(N4CCN(C)CC4)cc3OC)ncc2Cl)c1,1.59 µM,6.07 µM,2.08 µM,8.45 µM,2.29 µM,13 µM,0.513 µM,1.86 µM,2.19 µM,4.3 µM,1.62 µM,3.17 µM,1.49 µM,3.12 µM,2.59 µM,10.7 µM,1.84 µM,8.31 µM,0.342 µM,5.33 µM
CC(C)C(=O)c1c(C(F)(F)F)n([O-])c2ccccc2[n+]1=O,1.12 µM,2.54 µM,2.14 µM,> 20.5 µM,2.7 µM,6.25 µM,0.59 µM,2.07 µM,2.01 µM,5.58 µM,2.74 µM,7.8 µM,2.35 µM,13 µM,2.31 µM,> 27.1 µM,1.77 µM,3.97 µM,2.66 µM,> 100 µM
Cc1ccccc1C(C(=O)NC1CCCCC1)N(C(=O)CNc1ncccc1F)c1cccc(F)c1 (centres undefined),> 100 µM,> 100 µM,19 µM,> 100 µM,> 100 µM,> 100 µM,> 56.4 µM,> 100 µM,28.9 µM,> 90.3 µM,> 100 µM,> 100 µM,4.72 µM,20.1 µM,> 100 µM,> 100 µM,> 79.9 µM,> 100 µM,20.8 µM,> 61 µM
CCCN(CCC)c1ccc(C=O)c(C)c1,77.6 µM,> 100 µM,57.2 µM,> 100 µM,58.5 µM,> 100 µM,41.6 µM,> 100 µM,30.9 µM,> 100 µM,19.2 µM,> 96.3 µM,34.3 µM,> 100 µM,41.6 µM,> 100 µM,56.7 µM,> 100 µM,> 100 µM,> 100 µM
C=CCOC(=O)Nc1cccn([C@H](CC(C)C)C(=O)NCCC(C)C)c1=O,> 100 µM,> 100 µM,> 100 µM,> 100 µM,> 100 µM,> 100 µM,> 100 µM,> 100 µM,> 100 µM,> 100 µM,66.5 µM,> 100 µM,> 100 µM,> 100 µM,84.5 µM,> 100 µM,> 100 µM,> 100 µM,> 100 µM,> 100 µM
COc1cc2c(c(OC)c1OC)-c1c(c3ccc([N+](=O)[O-])cc3c(=O)n1CCCN)C2=O,7.27 µM,16.6 µM,1.79 µM,6.42 µM,1.77 µM,6.35 µM,9.89 µM,18.7 µM,1.21 µM,2.77 µM,8.22 µM,17 µM,2.05 µM,3.86 µM,8.16 µM,16.8 µM,4 µM,11.5 µM,12.8 µM,25.1 µM
Cn1cc(C2=C(c3cn(CCCCCO)c4ccccc34)C(=O)NC2=O)c2ccccc21,8.83 µM,> 25 µM,6.3 µM,> 20.2 µM,11.8 µM,> 25 µM,6.11 µM,16 µM,2.83 µM,8.15 µM,9.48 µM,> 25 µM,3.51 µM,9.61 µM,2.57 µM,> 25 µM,5.55 µM,19.5 µM,4.92 µM,17.8 µM
O=c1cccc2n1CC1CNC[C@H]2C1,–,> 100 µM,–,> 100 µM,–,> 100 µM,–,> 100 µM,–,> 100 µM,–,> 100 µM,–,> 100 µM,–,> 100 µM,–,> 100 µM,–,> 100 µM
CC(=O)OCCCC#CC#Cc1cccc(=O)o1,11.7 µM,26.8 µM,29.4 µM,86.4 µM,22.3 µM,42.4 µM,13 µM,26.4 µM,40 µM,> 100 µM,23.8 µM,55.6 µM,24.3 µM,43.8 µM,11.7 µM,25.7 µM,19 µM,39.7 µM,33.8 µM,> 100 µM
C=C1C(=O)C2=CC1CCC(=O)C1(C)CCC(OC(C)=O)C(C)(C)C1CC2O (centres undefined),–,13.9 µM,–,16.5 µM,–,18.9 µM,–,26.5 µM,–,25.6 µM,–,17 µM,–,6.31 µM,–,2.6 µM,–,12.5 µM,–,23 µM
COC(=O)[C@@H](C)C[C@H](Cc1ccccc1)NC(=O)c1csc([C@@H](C[C@H](C(C)C)N(C)C(=O)[C@@H](NC(=O)[C@H]2CCCN2C)C2CC2)OC(C)=O)n1,0.000446 µM and 0.0025 µM,> 25 µM,0.00262 µM and 0.0025 µM,> 25 µM,–,> 25 µM,–,> 25 µM,0.000505 µM,–,0.22 µM,–,0.0025 µM,> 25 µM,0.00495 µM and 0.0025 µM,> 25 µM,0.000981 µM and 0.0025 µM,> 25 µM,0.0083 µM and 0.0025 µM,> 25 µM
CCCCCCCCCCCCCCCCN(CC)CC,2.79 µM,7.52 µM,–,–,1.94 µM,4.26 µM,1.71 µM,3.4 µM,3.01 µM,8.9 µM,1.99 µM,4.98 µM,1.88 µM,4.2 µM,1.88 µM,3.66 µM,2.21 µM,5.53 µM,3.1 µM,9.8 µM
